Results from ChEMBL document CHEMBL1147372, “Bioactive metabolites from Sicilian marine fennel, Crithmum maritimum” (J Nat Prod, 1993).
In brackets after ≈: the same amount, converted by molar mass.

Assay: Toxicity in Artemia salina after 24 hrs
Assay type: organism-based
Details: in vivo

Compound | LC50 at 24 h
C=C[C@@H](O)C#CC#C[C@@H](O)/C=C\CCCCCCC [FALCARINDIOL] | 3.32 µg/mL (≈ 12.8 µM)
C=C[C@H](O)C#CC#CC/C=C\CCCCCCC [FALCARINOL] | 0.67 µg/mL (≈ 2.74 µM)
COc1cc(C=O)ccc1OC/C=C(\C)CCC=C(C)C [GERANYLOXYVANILLIN] | 85.8 µg/mL (≈ 298 µM)
